The test system of assay [1] is Chinese hamster ovary cells which express the cloned dopamine D4 receptor. As to the kind of experiment: Spontaneous G protein binding of [35S]GTPγS in membranes of CHO cells expressing the D4 receptor, after cycloleucine pretreatment. The assay is classed as cell-based. The note with it: cells treated with 0.1 mM and 1 mM cycloleucine prior to membrane preparation; versus untreated control membranes; FIG. 5A. For orientation: GTPγS resists hydrolysis and so accumulates on activated G proteins.
Experimental: The effect of cycloleucine, a known MAT inhibitor, on the binding of [^35 S]GTPγS was tested by treating Chinese hamster ovary cells expressing the D4 receptor with 0.1 mM and 1 mM cycloleucine prior to membrane preparation (FIG. 5A).
Chinese hamster ovary (CHO) cells stably expressing a cloned dopamine D4 receptor were grown as monolayers at 37° (95% O2 /5%CO2) in alpha minimum essential medium supplemented with 2.5% fetal calf serum, 2.5% horse serum, 100 units/ml penicillin, 100 μg/ml streptomycin, 0.25 μg/ml fungizone and 400 μg/ml G418.
Cells were washed twice with phosphate-buffered saline (137 mM NaCl, 2.6 mM KCl, 10 mM Na2 HPO4, 1.8 mM KH2 PO4), harvested with a rubber policeman, and pelleted at 4° at 200× g. The pellet was resuspended in 5 ml/dish of lysis buffer (5 mM Tris-HCL, pH 7.5, 5 mM EDTA, 5 mM EGTA, 0.1 mM phenylmethylsulfonyl fluoride) at 4° and was homogenized with a Dounce homogenizer. […]
[^35 S]GTPγS binding was measured with a modification of the assay used by Hilf and Jakobs (Eur J Pharmacol 172: 155-163 (1989)). […] The filters were washed four times (with 4 ml of 50 mM Tris.cndot.HCl, pH 7.5, containing 5 mM MgCl2 and 100 mM NaCl) and then counted in scintillation cocktail. Nonspecific binding was determined in the presence of 10 μM GTPγS and subtracted from total bound radioactivity.

Assay [2] relates to Chinese hamster ovary cells without the D4 receptor. Nature of the assay: Spontaneous [35S]GTPγS binding in CHO cells without the D4 receptor. The assay is classed as cell-based. The note with it: FIG. 5B. The source says:
FIGS. 5A and 5B illustrate graphic representations of the effect of cycloleucine on spontaneous G protein binding of [^35 S]GTPγS.

“Also recorded” adds a separate entry of the source.

With `NC1(C(=O)O)CCCC1` [cycloleucine], in assay [1], the “binding of [35S]GTPγS to the membranes (spontaneous G protein activation)” value is “inhibit spontaneous G protein binding of [^35 S]GTPγS; also recorded: progressively reduced by 0.1 mM and 1 mM cycloleucine pretreatment to levels significantly lower than the untreated control membranes”. In addition, the “effect on spontaneous [35S]GTPγS binding” value in assay [2] was “inability of cycloleucine to affect spontaneous [^35 S]GTPγS binding”.
